This note sets out measurements from patent publication US10246457B2, “Indazole and azaindazole Btk inhibitors” (MERCK SHARP & DOHME CORP., priority 2015, dated 2019).

In general, IC50 refers to the concentration needed to halve the response being measured.

Experiment [1] addresses 100P Btk enzyme (activated full-length Btk) (Homo sapiens (Human), UniProt Q06187). As to the kind of experiment: 100P Btk Enzyme Activity Assay (LANCE TR-FRET). Particulars: activated Btk (100P), 25 μM ATP, 60 minute compound and enzyme incubation; top concentration 1000 nM; read-out: Btk binding IC50 (nM) with 100 P. In kind it is biochemical. The procedure: Activated full-length Btk recombinant enzyme was expressed and purified in the same manner as the […] enzyme, except an auto-phosphorylation step was added to the purification scheme. […] This protein represents the activated state of the Btk enzyme. […] Btk Enzyme Activity Assay Btk enzymatic activity was determined with the LANCE (Lanthanide Chelate Excite) TR-FRET (lime-resolved fluorescence resonance energy transfer) assay. […] MW=79378 Da). […] Phosphorylation reactions were allowed to proceed for 45 minutes. […] After 60 minutes incubation with detection reagents, reaction plates were read on a PerkinElmer EnVision plate reader using standard TR-FRET protocol. Briefly, excitation of donor molecules (Eu-chelate:anti-phospho-antibody) with a laser light source at 337 nm produces energy that can be transferred to Dylight-650 acceptor molecules if this donor:acceptor pair is within close proximity. Fluorescence intensity at both 665 nm (acceptor) and 615 nm (donor) are measured and a TR-FRET ratio calculated for each well (acceptor intensity/donor intensity). […] (Log10) compound concentrations.
In general terms: TR-FRET usually uses a lanthanide donor and a delayed reading to cut background.

The target of experiment [2] is 25P Btk enzyme (un-activated full-length Btk) (Homo sapiens (Human), UniProt Q06187). As to the kind of experiment: 25P Btk Enzyme Activity Assay (LANCE TR-FRET). The format is biochemical. The conditions noted are these: un-activated Btk (25P), 25 μM ATP, 60 minute compound and enzyme incubation; read-out: Btk binding IC50 (nM) with 25 P. The procedure: Preparation of Un-Activated Btk Enzyme (25P Btk)
25P Btk enzyme (un-activated full-length Btk), sequence (Q06187 whole entry): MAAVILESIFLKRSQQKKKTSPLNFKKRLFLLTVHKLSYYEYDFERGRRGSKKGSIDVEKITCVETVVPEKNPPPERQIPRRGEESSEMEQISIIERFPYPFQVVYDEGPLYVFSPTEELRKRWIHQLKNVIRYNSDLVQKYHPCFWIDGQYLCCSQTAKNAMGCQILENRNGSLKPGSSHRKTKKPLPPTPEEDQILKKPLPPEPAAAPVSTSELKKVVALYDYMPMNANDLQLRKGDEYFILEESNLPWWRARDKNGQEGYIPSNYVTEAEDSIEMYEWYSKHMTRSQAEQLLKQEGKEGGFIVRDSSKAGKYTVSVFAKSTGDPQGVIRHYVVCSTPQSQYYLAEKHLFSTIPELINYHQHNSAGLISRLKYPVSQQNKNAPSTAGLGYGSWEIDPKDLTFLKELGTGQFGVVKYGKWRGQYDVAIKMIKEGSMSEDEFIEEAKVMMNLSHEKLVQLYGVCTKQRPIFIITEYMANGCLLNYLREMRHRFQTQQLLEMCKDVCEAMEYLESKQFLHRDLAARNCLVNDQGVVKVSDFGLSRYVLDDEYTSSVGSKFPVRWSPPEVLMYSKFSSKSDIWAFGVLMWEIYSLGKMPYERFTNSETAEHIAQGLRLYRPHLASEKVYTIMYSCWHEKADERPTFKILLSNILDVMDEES
Un-activated full-length Btk recombinant protein was purified from baculovirus-transfected Sf21 cells. […] This protein represents the un-activated state of the Btk enzyme.
25P Btk Enzyme Activity Assay
Btk enzymatic activity was determined with the LANCE (Lanthanide Chelate Excite) TR-FRET (lime-resolved fluorescence resonance energy transfer) assay. […] To each well of a black non-binding surface Corning 384-well microplate (Corning Catalog #3820), 5 nL of compound (2000 fold dilution in final assay volume of 10 μL) was dispensed, followed by the addition of 7.5 μL of 1× kinase buffer (50 mM Hepes 7.5, 10 mM MgCl2, 0.01% Brij-35, 1 mM EGTA, 0.05% BSA and 1 mM DTT) containing 26.67 pg/μL (266.7 pM) of 25P Btk enzyme (recombinant protein from baculovirus-transfected Sf9 cells: full-length Btk; MW=79378 Da). Following a 60 minute compound and enzyme incubation, each reaction was initiated by the addition of 2.5 μL 1× kinase buffer containing 8 μM biotinylated “A5” peptide (Biotin-EQEDEPEGDYFEWLE-NH2), and 100 μM ATP. The final reaction in each well of 10 consists of 200 pM 25P Btk, 2 μM biotin-A5-peptide, and 25 μM ATP. Phosphorylation reactions were allowed to proceed for 120 minutes. Reactions were immediately quenched by the addition of 20 uL of 1× quench buffer (15 mM EDTA, 25 mM Hepes 7.3, and 0.1% Triton X-100) containing detection reagents (0.626 nM of LANCE-Eu-W1024-anti-phosphoTyrosine antibody, PerkinElmer and 86.8 nM of Streptavidin-conjugated Dylight 650, Dyomics/ThermoFisher Scientific). After 60 minutes incubation with detection reagents, reaction plates were read on a PerkinElmer EnVision plate reader using standard TR-FRET protocol. Briefly, excitation of donor molecules (Eu-chelate:anti-phospho-antibody) with a laser light source at 337 nm produces energy that can be transferred to Dylight-650 acceptor molecules if this donor:acceptor pair is within close proximity. Fluorescence intensity at both 665 nm (acceptor) and 615 nm (donor) are measured and a TR-FRET ratio calculated for each well (acceptor intensity/donor intensity). IC50 values were determined by 4 parameter robust fit of TR-FRET ratio values vs. (Log10) compound concentrations.

100P Btk enzyme (activated full-length Btk), sequence (Q06187 whole entry): as above

In the case of `CC(C)(C)c1cc(F)c2c(=O)n(-c3cccc(-c4cc(C(=O)O)c5[nH]nc(N)c5c4)c3CO)ncc2c1` [Example 1, 3-amino-5-[3-(6-tert-butyl-8-fluoro-1-oxophthalazin-2(1H)-yl)-2-(hydroxymethyl)phenyl]-1H-indazole-7-carboxylic acid], the figures for the IC50 in experiment [1] and in experiment [2] were 112 nM and 0.14 nM, respectively. For `Cc1cc2[nH]nc(N)c2cc1-c1cccc(-n2ncc3cc(C(C)(C)C)cc(F)c3c2=O)c1CO` [Example 2, 2-[3-(3-amino-6-methyl-1H-indazol-5-yl)-2-(hydroxymethyl)phenyl]-6-tert-butyl-8-fluorophthalazin-1(2H)-one], in that order: 341 nM and 10.9 nM. For `CC(C)(C)c1cc(F)c2c(=O)n(-c3cccc(-c4cc(C(N)=O)c5[nH]nc(N)c5c4)c3CO)ncc2c1` [Example 3, 3-amino-5-[3-(6-tert-butyl-8-fluoro-1-oxophthalazin-2(1H)-yl)-2-(hydroxymethyl)phenyl]-1H-indazole-7-carboxamide], in that order: 16 nM and 0.16 nM. Consider `CC(C)(C)c1cc(F)c2c(=O)n(-c3cccc(-c4cc(C(F)(F)F)c5[nH]nc(N)c5c4)c3CO)ncc2c1` [Example 4, 2-{3-[3-amino-7-(trifluoromethyl)-1H-indazol-5-yl]-2-(hydroxymethyl)phenyl}-6-tert-butyl-8-fluorophthalazin-1(2H)-one], for which the IC50 in experiment [2] came out at 38.6 nM. The same measure, in the same setting: as for `Cn1nc(N)c2cc(-c3cccc(-n4ncc5cc(C(C)(C)C)cc(F)c5c4=O)c3CO)cc(C(N)=O)c21` [Example 5, 3-amino-5-[3-(6-tert-butyl-8-fluoro-1-oxophthalazin-2 (1H)-yl)-2-(hydroxymethyl)phenyl]-1-methyl-1H-indazole-7-carboxamide], the figure is 47.3 nM. Take `CC(C)n1cc(-c2cc(-c3cccc(-n4ncc5cc(C(C)(C)C)cc(F)c5c4=O)c3CO)cc3c(N)n[nH]c23)cn1` [Example 6, 2-[3-{3-amino-7-[1-(1-methylethyl)-1H-pyrazol-4-yl]-1H-indazol-5-yl}-2-(hydroxymethyl)phenyl]-6-tert-butyl-8-fluorophthalazin-1(2H)-one]: the IC50 was 3.8 nM in experiment [1] and 0.15 nM in experiment [2]. Turning to `Cc1c(NC(=O)c2ccc(C(C)(C)C)cc2F)cccc1-c1cc(C(N)=O)c2[nH]nc(N)c2c1` [Example 7, 3-amino-5-(3-{[(4-tert-butyl-2-fluorophenyl)carbonyl]amino}-2-methylphenyl)-1H-indazole-7-carboxamide], in experiment [2], the IC50 was 64.5 nM.

For the compound `Cc1c(NC(=O)c2ccc(C(C)(C)C(F)(F)F)cc2F)cccc1-c1cc(C(N)=O)c2[nH]nc(N)c2c1` [Example 8, 3-amino-5-[3-({[2-fluoro-4-(2,2,2-trifluoro-1,1-dimethylethyl)phenyl]carbonyl}amino)-2-methylphenyl]-1H-indazole-7-carboxamide], the 50% inhibitory concentration (IC50) in experiment [2] is 268 nM. With `Cn1cc(-c2cc(-c3cccc(-n4ncc5cc(C(C)(C)C)cc(F)c5c4=O)c3CO)cc3c(N)n[nH]c23)cn1` [Example 9, 2-{3-[3-amino-7-(1-methyl-1H-pyrazol-4-yl)-1H-indazol-5-yl]-2-(hydroxymethyl)phenyl}-6-tert-butyl-8-fluorophthalazin-1(2H)-one], the IC50 in experiment [1] was 5.3 nM; in experiment [2], 0.073 nM. For `CC(C)(C)c1cc(F)c2c(=O)n(-c3cccc(-c4cc(-c5cccnc5)c5[nH]nc(N)c5c4)c3CO)ncc2c1` [Example 10, 2-[3-(3-amino-7-pyridin-3-yl-1H-indazol-5-yl)-2-(hydroxymethyl)phenyl]-6-tert-butyl-8-fluorophthalazin-1(2H)-one], in that order: 299 nM and 0.8 nM. For `CNC(=O)c1cc(-c2cccc(-n3ncc4cc(C(C)(C)C)cc(F)c4c3=O)c2CO)cc2c(N)n[nH]c12` [Example 11, 3-amino-5-[3-(6-tert-butyl-8-fluoro-1-oxophthalazin-2(1H)-yl)-2-(hydroxymethyl)phenyl]-N-methyl-1H-indazole-7-carboxamide], in that order: 29.3 nM and 0.16 nM. `CC(C)(C)c1cc(F)c2c(=O)n(-c3cccc(-c4ccc5c(c4)c(N)nn5Cc4ccncc4)c3CO)ncc2c1` [Example 12, 2-{3-[3-amino-1-(pyridin-4-ylmethyl)-1H-indazol-5-yl]-2-(hydroxymethyl)phenyl}-6-tert-butyl-8-fluorophthalazin-1(2H)-one]: the IC50 in experiment [2] worked out at 29.6 nM. Same read-out and setting: as for `Cc1c(NC(=O)c2ccc(C(C)(C)C)cc2)cccc1-c1cc(-c2cnn(C)c2)c2[nH]nc(N)c2c1` [Example 13, N-{3-[3-amino-7-(1-methyl-1H-pyrazol-4-yl)-1H-indazol-5-yl]-2-methylphenyl}-4-tert-butylbenzamide], the figure is 16.7 nM.

As to `CC(C)(C)c1cc(F)c2c(=O)n(-c3cccc(-c4cc(C(=O)N5CCOCC5)c5[nH]nc(N)c5c4)c3CO)ncc2c1` [Example 14, 2-{3-[3-amino-7-(morpholin-4-ylcarbonyl)-1H-indazol-5-yl]-2-(hydroxymethyl)phenyl}-6-tert-butyl-8-fluorophthalazin-1(2H)-one], the IC50 in experiment [2] amounted to 173 nM. As to `CC(C)(C)c1cc(F)c2c(c1)CCN(c1cccc(-c3cc(C(N)=O)c4[nH]nc(N)c4c3)c1CO)C2=O` [Example 16, 3-amino-5-[3-(6-tert-butyl-8-fluoro-1-oxo-3,4-dihydroisoquinolin-2(1H)-yl)-2-(hydroxymethyl)phenyl]-1H-indazole-7-carboxamide], the results for the IC50 in experiment [1] and in experiment [2] were 145 nM and 0.49 nM, respectively. For `CC(C)n1ccc(-c2cc(-c3cccc(-n4ncc5cc(C(C)(C)C)cc(F)c5c4=O)c3CO)cc3c(N)n[nH]c23)n1` [Example 17, 2-[3-{3-amino-7-[1(1-methylethyl)-1H-pyrazol-3-yl]-1H-indazol-5-yl}-2-(hydroxymethyl)phenyl]-6-tert-butyl-8-fluorophthalazin-1(2H)-one], in that order: 13 nM and 0.16 nM. For `Cn1cc(-c2cc(-c3cccc(NC(=O)c4cc5c(s4)CCCC5)c3CO)cc3c(N)n[nH]c23)cn1` [Example 18, N-{3-[3-amino-7-(1-methyl-1H-pyrazol-4-yl)-1H-indazol-5-yl]-2-(hydroxymethyl)phenyl}-4,5,6,7-tetrahydro-1-benzothiophene-2-carboxamide], in that order: 11.6 nM and 0.13 nM. On to `CC(C)(C)c1cc(F)c2c(=O)n(-c3cccc(-c4cc(-c5ccccc5)c5[nH]nc(N)c5c4)c3CO)ncc2c1` [Example 19, 2-[3-(3-amino-7-phenyl-1H-indazol-5-yl)-2-(hydroxymethyl)phenyl]-6-tert-butyl-8-fluorophthalazin-1(2H)-one], for which the IC50 was determined as 429 nM in experiment [1] and 0.48 nM in experiment [2]. As to `CC(C)(C)c1cc(F)c2c(=O)n(-c3cccc(-c4ccc5[nH]nc(N)c5n4)c3CO)ncc2c1` [Example 20, 2-[3-(3-amino-1H-pyrazolo[4,3-b]pyridin-5-yl)-2-(hydroxymethyl)phenyl]-6-tert-butyl-8-fluorophthalazin-1(2H)-one], in experiment [2], the IC50 was found to be 7.7 nM. For the compound `CC(C)(C)c1cc(F)c2c(=O)n(-c3cccc(-c4cc5c(N)n[nH]c5cn4)c3CO)ncc2c1` [Example 21, 2-[3-(3-amino-1H-pyrazolo[3,4-c]pyridin-5-yl)-2-(hydroxymethyl)phenyl]-6-tert-butyl-8-fluorophthalazin-1(2H)-one], the IC50 worked out at 801 nM in experiment [1] and 9.5 nM in experiment [2].
